Measurements published in US20070225316A1, “Methods and compositions for treating schizophrenia” (priority 2006, published 2007).
Counter-ions that a name gives are not always drawn.

Test system: NMDA receptors (NMDA-induced currents)
Assay: Patch clamp (whole cell) registration of NMDA-induced currents in cultured rat hippocampus neurons
Format: cell-based
Conditions: for Change of the blocking effect of MK-801 on NMDA-induced currents after preliminary application of the substance: result in words
Method: Experiments were carried out by the patch clamp method on freshly isolated neurons of a rat brain cortex or on cultured rat hippocampus neurons. Neurons for cultivation were obtained from the hippocampus of neonatal rats (1-2 days) by the method of trypsinization followed by pipetting. Cells suspended in culture medium were placed in 3 mL quantities into the wells of a 6-well planchette (Nunc) or into Petri dishes, in which glasses coated with poly-L-lysine had first been placed. The cell concentration as a rule was […]. The culture medium consisted of Eagle's minimum medium and a DME/F12 medium (1:1) supplemented with 10% calf serum, glutamine (2 mM), gentamycin (50 μg/mL), glucose (15 mM) and 20 mM KCl, with the pH brought to 7-7.4 using NaHCO3. Planchettes containing cultures were placed in a CO2— incubator at 37° C. and 100% humidity. Cytosine arabinoside 10-20 μL was added on the second to third day of cultivation. After 6-7 days of cultivation 1 mg/mL glucose was added to the medium, or the medium was exchanged, depending on the following experiment. The cultured hippocampus neurons were placed in a 0.4 mL working chamber. The working solution had the following composition (mM): NaCl 150.0, KCl 5.0, CaCl2 2.6, MgSO4×7H2O 2.0, HEPES 10.0, glucose 15.0, pH 7.36.
Transmembrane currents produced by application of NMDA were registered by the patch clamp electrophysiological method in the whole cell configuration. Application of substances was done by the method of rapid superfusion. Currents were registered with the aid of borosilicate microelectrodes (resistance […]) filled with the following composition (mM): KCl 100.0, EGTA 11.0, CaCl2 1.0, MgCl2 1.0, HEPES 10.0, ATP 5.0 pH 7.2. An EPC-9 instrument (HEKA, Germany) was used for registration. Currents were recorded on the hard disk of a Pentium-IV PC using the pulse program, which is also purchased from HEKA. The results were analyzed with the aid of the Pulsefit program (HEKA).

N[C@H](CCCP(=O)(O)O)C(=O)O [D-AP5, D-2-amino-5-phosphonovaleric acid]
Change of the blocking effect of MK-801 on NMDA-induced currents after preliminary application of the substance: did not decrease the blocking effect of MK-801

Cc1ccc2c(c1)c1c(n2CCc2ccc(C)nc2)CCN(C)C1 [Dimebon, 2,8-dimethyl-5-[2-(6-methylpyridyl-3)ethyl]-2,3,4,5-tetrahydro-1H-pyrido[4,3-b]indole dihydrochloride]
IC50 (cultured rat hippocampus neurons, range and average printed, dihydrochloride, read-out: IC50 of blocking effect on currents caused by application of NMDA): 7.7 ± 1.9 µM
Blockade of NMDA-induced currents (%) (dimebon alone at 10 μM): By 50-70% at 10 μM
Blockade of NMDA-induced currents (%) by MK-801 after preliminary perfusion with dimebon (preliminary perfusion with dimebon 10 μM, then MK-801): 40±18%
Change of the blocking effect of MK-801 on NMDA-induced currents after preliminary application of the substance: capable of reducing the blocking effect of MK-801
